Measured values as given in US10869884B2, “Cyclodextrin based polymers, methods, compositions and applications thereof” (ATEN PORUS LIFESCIENCES, priority 2016, dated 2020).

Experiments:
Assay type in all cases: in vivo, BALB/c mice
[1] = Body weight in the Adriamycin nephropathy (FSGS) dose response/frequency study; conditions: ADR mice, 40 mg/kg/day s.c., 10 weeks, compared to normal mice
Procedure: (§1) Experimental Protocol: 6 animals (BALB/c mice) per group of 6-7 weeks of age were used. Nephropathy was induced in all animals, except group 1 (normal control), with Adriamycin (ADR, 11 mg/kg, i.v., single dose) at dose volume of 6 ml/kg. Normal saline (0.9%) was used as vehicle for the reference and test compounds. Treatment was started 24 hours after Adriamycin injection. Groups of animals (n=6) were treated subcutaneously with vehicle, HBCD, Polymer A and Polymer B at the doses and regimens shown in FIG. 10, for 10 weeks. At the end of the study, animals were sacrificed by CO2 exposure, blood samples and kidneys were collected for the estimation of various biomarkers in serum.
Body weights: Body weights were measured at the beginning of study and weekly throughout for ten weeks (FIG. 11) to provide a general assessment of rodent health after therapy.

ADR-induced nephropathy [2] = experiment: Kidney histopathology (H/E and PAS staining, mesangial expansion) in the Adriamycin nephropathy model; conditions: ADR mice, 40 mg/kg/day s.c. (group 3), 10 weeks
Procedure: as §1
Histopathology: At the end of the study, kidney samples were collected from each animal, fixed in 10% NBF (Neutral Buffered […]) and subjected to histopathology. Periodic acid-Schiff (PAS) or Hematoxylin and Eosin (H/E) staining of 4 micron-thick tissue sections was performed according to the standard protocols. Mesangial expansion area was determined based on the area of PAS staining.

ADR-induced nephropathy [3] = experiment: Serum blood urea nitrogen (BUN) in the Adriamycin nephropathy (FSGS) model; conditions: ADR mice, 40 mg/kg/day s.c., end of study
Procedure: as §1
Serum Analysis: Serum samples were analysed in an Automated Clinical Chemistry Analyzer EM360, Transasia Bio-medicals Ltd, for albumin and creatinine. • (a) Blood Urea Nitrogen (BUN) assay to assess the level of kidney function was analysed by the GLDH Urease method using an Erba standard BUN kit. (FIG. 13). Administration of ADR to induce nephropathy increased blood urea nitrogen levels as one would expect from an impaired kidney. […] The combination of data from these studies serves to illustrate the potential of the polymers of the present disclosure as treatment options for kidney disease compared to known cholesterol clearance compounds.

Question: Which mean body weight [1] does the source give for hydroxypropyl β-cyclodextrin [HBCD] here?
Answer: The mean body weight was “largest drop in mean body weight without any substantial rebound”.

Question: And the “kidney histopathology (glomeruli appearance)” value (ADR-induced nephropathy [2])?
Answer: Its value is “glomeruli that are normal in appearance”.

Question: And the “serum blood urea nitrogen (BUN) level” value (ADR-induced nephropathy [3])?
Answer: Its value is “BUN levels return to that found for the control group”.
